Assay results reported in the NIST ThermoML archive (doi:10.1021/je800077r).
± gives the expanded uncertainty stated by the source.

Assays:
[1] = refractive index (Na D-line) (dimensionless); xn = mol fraction of the nth substance listed; conditions: 101 kPa, Liquid, Standard Abbe refractometry
[2] = xn = mol fraction of the nth substance listed; conditions: 101 kPa, Liquid; for speed of sound: Sing-around technique in a fixed-path interferometer; for mass density: Vibrating tube method

Compound	refractive index ([1]; 293.15 K, x2 = 0)	refractive index ([1]; 298.15 K, x2 = 0)	refractive index ([1]; 303.15 K, x2 = 0)	speed of sound ([2]; 293.15 K, x2 = 0) [m/s]	mass density ([2]; 293.15 K, x2 = 0) [kg/m3]	speed of sound ([2]; 298.15 K, x2 = 0) [m/s]	mass density ([2]; 298.15 K, x2 = 0) [kg/m3]	speed of sound ([2]; 303.15 K, x2 = 0) [m/s]	mass density ([2]; 303.15 K, x2 = 0) [kg/m3]	refractive index ([1]; 293.15 K, x1 = 1)	refractive index ([1]; 298.15 K, x1 = 1)	refractive index ([1]; 303.15 K, x1 = 1)	speed of sound ([2]; 293.15 K, x1 = 1) [m/s]	mass density ([2]; 293.15 K, x1 = 1) [kg/m3]	speed of sound ([2]; 298.15 K, x1 = 1) [m/s]	mass density ([2]; 298.15 K, x1 = 1) [kg/m3]	speed of sound ([2]; 303.15 K, x1 = 1) [m/s]	mass density ([2]; 303.15 K, x1 = 1) [kg/m3]
CCOC(C)=O [ethyl acetate] + CCCCCCn1cc[n+](C)c1.F[P-](F)(F)(F)(F)F	1.37241 ± 0.00061	1.36977 ± 0.00061	1.36712 ± 0.00062	1162 ± 1	900.5 ± 0.1	1141 ± 1	894.4 ± 0.1	1111 ± 1	888.2 ± 0.1	–	–	–	–	–	–	–	–	–
CCCCCC [hexane] + CCOC(C)=O	–	–	–	–	–	–	–	–	–	1.37495 ± 0.00067	1.37217 ± 0.00067	1.36936 ± 0.00067	1100 ± 2	659.5 ± 0.3	1078 ± 2	654.9 ± 0.3	1055 ± 2	650.4 ± 0.3
